Square brackets hold non-standard residues; d marks the D form. Ends that are not written are not given here. Met(O) = CS(=O)CC[C@H](N)C(=O)O; pS = N[C@@H](COP(=O)(O)O)C(=O)O
Assays:
[1] = test system: expanded lymphocyte cultures from deceased donor livers, cirrhotic livers and HCC; assay: ICS for MHC-I-pP reactivity of liver-derived lymphocyte cultures after phosphopeptide-specific expansion; type: cell-based, human; conditions: for ppCTL response, Deceased Donor Liver Do 2 / ppCTL response, Deceased Donor Liver Do 3 / ppCTL response, Deceased Donor Liver Do 4 / ppCTL response, Deceased Donor Liver Do 6 / ppCTL response, End-stage Liver Cirrhosis IHL 11 / ppCTL response, End-stage Liver Cirrhosis IHL 12 / ppCTL response, End-stage Liver Cirrhosis IHL 13 / ppCTL response, End-stage Liver Cirrhosis IHL 15 / ppCTL response, HCC Distal HCC 1 / ppCTL response, HCC Tumor HCC 1 / ppCTL response, HCC Distal HCC 4 / ppCTL response, HCC Distal HCC 9 / ppCTL response, HCC Tumor HCC 9 / ppCTL response, HCC Distal HCC 12: pP-specifically expanded culture; for ppCTL response, HCC Distal HCC 1: HCC 1 Distal; for ppCTL response, HCC Tumor HCC 1: HCC 1 Tumor; for ppCTL response, HCC Distal HCC 4: HCC 4 Distal; for ppCTL response, HCC Distal HCC 9: HCC 9 Distal; for ppCTL response, HCC Tumor HCC 9: HCC 9 Tumor; for ppCTL response, HCC Distal HCC 12: HCC 12 Distal
CD8^+ T cells (PBMCs) = assay: Intracellular cytokine staining (ICS) of PBMCs after 7 days of stimulation with MHC-I-pP (healthy donors, HH patients); type: cell-based, human; conditions: for Reactive CD8^+ T cell population, HH2: HH patient HH2; for Reactive CD8^+ T cell population, HH3: HH patient HH3; for Reactive CD8^+ T cell population, HH6: HH patient HH6; for Reactive CD8^+ T cell population, HH8: HH patient HH8; for Reactive CD8^+ T cell population, HD1: Healthy donor HD1; for Reactive CD8^+ T cell population, HD4: Healthy donor HD4; for Reactive CD8^+ T cell population, HD5: Healthy donor HD5
In short: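 PBMCs or liver lymphocytes from HLA-A*0201-positive healthy donors and hereditary hemochromatosis patients were stimulated for 7 days with HLA-A*0201-restricted phosphopeptides and no added cytokines. After exclusion of doublets and dead cells with a fixable viability dye, CD3^+CD8^+ cells were analysed by intracellular staining for IFN-γ and TNF-α, plus CD107a where needed.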

[2] = test system: expanded TIL / IHL cultures; assay: ICS for MHC-I-pP reactivity of liver-derived lymphocyte cultures after unspecific rapid expansion protocol (REP); type: cell-based, human
[3] = test system: unexpanded lymphocyte cultures (CD8^+ T cells); assay: ICS for MHC-I-pP reactivity of lymphocyte cultures without expansion (Table 23, No Expansion)

Row | Substance | Reactive CD8^+ T cells, pP-specific Expansion, Do2 [1] | Reactive CD8^+ T cells, pP-specific Expansion, Do4 [1] | Reactive CD8^+ T cells, pP-specific Expansion, HH6 [1] | ppCTL response, Deceased Donor Liver Do 2 [1] | ppCTL response, Deceased Donor Liver Do 3 [1] | ppCTL response, Deceased Donor Liver Do 4 [1] | ppCTL response, Deceased Donor Liver Do 6 [1] | ppCTL response, End-stage Liver Cirrhosis IHL 11 [1] | ppCTL response, End-stage Liver Cirrhosis IHL 12 [1] | ppCTL response, End-stage Liver Cirrhosis IHL 13 [1] | ppCTL response, End-stage Liver Cirrhosis IHL 15 [1] | ppCTL response, HCC Distal HCC 1 [1] | ppCTL response, HCC Tumor HCC 1 [1] | ppCTL response, HCC Distal HCC 4 [1] | ppCTL response, HCC Distal HCC 9 [1] | ppCTL response, HCC Tumor HCC 9 [1] | ppCTL response, HCC Distal HCC 12 [1] | Reactive CD8^+ T cell population, HH2 (CD8^+ T cells (PBMCs)) | Reactive CD8^+ T cell population, HH3 (CD8^+ T cells (PBMCs)) | Reactive CD8^+ T cell population, HH6 (CD8^+ T cells (PBMCs)) | further results
1 | KIAsEIAQL: CASKIN2 phosphopeptide, HLA-A*0201 (KIA[pS]EIAQL; listed as Homo sapiens) | 0 (<0.25% reactive CD8^-+ T cells) | 0 (<0.25% reactive CD8^-+ T cells) | 0 (<0.25% reactive CD8^-+ T cells) | 0 (<0.25% reactive CD8-+ T cells) | 0 (<0.25% reactive CD8-+ T cells) | 1 (0.25-2.5% reactive CD8-+ T cells) | 1 (0.25-2.5% reactive CD8-+ T cells) | 0 (<0.25% reactive CD8-+ T cells) | 0 (<0.25% reactive CD8-+ T cells) | 0 (<0.25% reactive CD8-+ T cells) | 0 (<0.25% reactive CD8-+ T cells) | 0 (<0.25% reactive CD8-+ T cells) | 0 (<0.25% reactive CD8-+ T cells) | 0 (<0.25% reactive CD8-+ T cells) | 0 (<0.25% reactive CD8-+ T cells) | 0 (<0.25% reactive CD8-+ T cells) | 0 (<0.25% reactive CD8-+ T cells) | 0 (<0.25% reactive CD8^-+ T cells) | 0 (<0.25% reactive CD8^-+ T cells) | 1 (0.25-2.5% reactive CD8^-+ T cells) | Reactive CD8^+ T cell population, HH8 (CD8^+ T cells (PBMCs)): 0 (<0.25% reactive CD8^-+ T cells); Reactive CD8^+ T cell population, HD1 (CD8^+ T cells (PBMCs)): 0 (<0.25% reactive CD8^-+ T cells); Reactive CD8^+ T cell population, HD4 (CD8^+ T cells (PBMCs)): 0 (<0.25% reactive CD8^-+ T cells); Reactive CD8^+ T cell population, HD5 (CD8^+ T cells (PBMCs)): 0 (<0.25% reactive CD8^-+ T cells); Reactive CD8^+ T cells, Non-specific Expansion, Do2 [2]: 1 (0.25-2.5% reactive CD8^-+ T cells); Reactive CD8^+ T cells, Non-specific Expansion, Do4 [2]: 0 (<0.25% reactive CD8^-+ T cells); Reactive CD8^+ T cells, Non-specific Expansion, HH6 [2]: 1 (0.25-2.5% reactive CD8^-+ T cells); Reactive CD8^+ T cells, No Expansion, HH6 [3]: 1 (0.25-2.5% reactive CD8^-+ T cells)
2 | RTHsLLLLL (RTH[pS]LLLLL; listed as Homo sapiens) | 0 (<0.25% reactive CD8^-+ T cells) | 0 (<0.25% reactive CD8^-+ T cells) | 0 (<0.25% reactive CD8^-+ T cells) | 0 (<0.25% reactive CD8-+ T cells) | 0 (<0.25% reactive CD8-+ T cells) | 0 (<0.25% reactive CD8-+ T cells) | 0 (<0.25% reactive CD8-+ T cells) | 0 (<0.25% reactive CD8-+ T cells) | 0 (<0.25% reactive CD8-+ T cells) | 0 (<0.25% reactive CD8-+ T cells) | 0 (<0.25% reactive CD8-+ T cells) | 0 (<0.25% reactive CD8-+ T cells) | 0 (<0.25% reactive CD8-+ T cells) | 0 (<0.25% reactive CD8-+ T cells) | 0 (<0.25% reactive CD8-+ T cells) | 0 (<0.25% reactive CD8-+ T cells) | 0 (<0.25% reactive CD8-+ T cells) | 0 (<0.25% reactive CD8^-+ T cells) | 0 (<0.25% reactive CD8^-+ T cells) | 0 (<0.25% reactive CD8^-+ T cells) | Reactive CD8^+ T cell population, HH8 (CD8^+ T cells (PBMCs)): 0 (<0.25% reactive CD8^-+ T cells); Reactive CD8^+ T cell population, HH10 (CD8^+ T cells (PBMCs); HH patient HH10): 0 (<0.25% reactive CD8^-+ T cells); Reactive CD8^+ T cell population, HH11 (CD8^+ T cells (PBMCs); HH patient HH11): 0 (<0.25% reactive CD8^-+ T cells); Reactive CD8^+ T cell population, HD1 (CD8^+ T cells (PBMCs)): 0 (<0.25% reactive CD8^-+ T cells); Reactive CD8^+ T cell population, HD2 (CD8^+ T cells (PBMCs); Healthy donor HD2): 0 (<0.25% reactive CD8^-+ T cells); Reactive CD8^+ T cell population, HD3 (CD8^+ T cells (PBMCs); Healthy donor HD3): 0 (<0.25% reactive CD8^-+ T cells); Reactive CD8^+ T cell population, HD4 (CD8^+ T cells (PBMCs)): 0 (<0.25% reactive CD8^-+ T cells); Reactive CD8^+ T cell population, HD5 (CD8^+ T cells (PBMCs)): 0 (<0.25% reactive CD8^-+ T cells); Reactive CD8^+ T cells, Non-specific Expansion, Do2 [2]: 0 (<0.25% reactive CD8^-+ T cells); Reactive CD8^+ T cells, Non-specific Expansion, Do4 [2]: 0 (<0.25% reactive CD8^-+ T cells); Reactive CD8^+ T cells, Non-specific Expansion, HH6 [2]: 1 (0.25-2.5% reactive CD8^-+ T cells); Reactive CD8^+ T cells, No Expansion, Do4 ([3]; Do4): 2 (2.5-5.0% reactive CD8^-+ T cells); Reactive CD8^+ T cells, No Expansion, HH6 [3]: 1 (0.25-2.5% reactive CD8^-+ T cells)
3 | SImsPEIQL: CIC phosphopeptide, HLA-A*0201 (SI[Met(O)][pS]PEIQL; listed as Homo sapiens) | 0 (<0.25% reactive CD8^-+ T cells) | 0 (<0.25% reactive CD8^-+ T cells) | 2 (2.5-5.0% reactive CD8^-+ T cells) | 0 (<0.25% reactive CD8-+ T cells) | 0 (<0.25% reactive CD8-+ T cells) | 0 (<0.25% reactive CD8-+ T cells) | 0 (<0.25% reactive CD8-+ T cells) | 0 (<0.25% reactive CD8-+ T cells) | 0 (<0.25% reactive CD8-+ T cells) | 0 (<0.25% reactive CD8-+ T cells) | 0 (<0.25% reactive CD8-+ T cells) | 0 (<0.25% reactive CD8-+ T cells) | 0 (<0.25% reactive CD8-+ T cells) | 0 (<0.25% reactive CD8-+ T cells) | 0 (<0.25% reactive CD8-+ T cells) | 0 (<0.25% reactive CD8-+ T cells) | 0 (<0.25% reactive CD8-+ T cells) | 1 (0.25-2.5% reactive CD8^-+ T cells) | 0 (<0.25% reactive CD8^-+ T cells) | 0 (<0.25% reactive CD8^-+ T cells) | Reactive CD8^+ T cell population, HH8 (CD8^+ T cells (PBMCs)): 0 (<0.25% reactive CD8^-+ T cells); Reactive CD8^+ T cell population, HD1 (CD8^+ T cells (PBMCs)): 0 (<0.25% reactive CD8^-+ T cells); Reactive CD8^+ T cell population, HD4 (CD8^+ T cells (PBMCs)): 0 (<0.25% reactive CD8^-+ T cells); Reactive CD8^+ T cell population, HD5 (CD8^+ T cells (PBMCs)): 0 (<0.25% reactive CD8^-+ T cells); Reactive CD8^+ T cells, Non-specific Expansion, Do2 [2]: 0 (<0.25% reactive CD8^-+ T cells); Reactive CD8^+ T cells, Non-specific Expansion, Do4 [2]: 0 (<0.25% reactive CD8^-+ T cells); Reactive CD8^+ T cells, Non-specific Expansion, HH6 [2]: 0 (<0.25% reactive CD8^-+ T cells); Reactive CD8^+ T cells, No Expansion, HH6 [3]: 0 (<0.25% reactive CD8^-+ T cells)

From US20190374627A1, “TARGET PEPTIDES FOR CANCER THERAPY AND DIAGNOSTICS” (priority 2016, published 2019)
